Test results: ChEMBL document CHEMBL2331359, “Ceramicines from Chisocheton ceramicus as lipid-droplets accumulation inhibitors” (Bioorg Med Chem Lett, 2013)
pIC50: −log10 of the molar value.

Legend:
[1] = Selectivity index, ratio of CC50 for mouse MC3T3-G2/PA6 cells to IC50 for inhibition of lipid droplet accumulation in mouse MC3T3-G2/PA6 cells; type: functional
[2] = Cytotoxicity against mouse MC3T3-G2/PA6 cells assessed as cell viability by MTT assay; type: cell-based
[3] = Antiadipogenic activity in mouse MC3T3-G2/PA6 cells assessed as inhibition of lipid droplet accumulation after 6 days; type: functional, cell-based; settings: MC3T3-G2/PA6, 144 h

Structure (SMILES)	Ratio CC50/IC50 [1]	CC50 [2] [µM]	pIC50 [3]
CCO[C@@H]1[C@@H]2OC[C@]3(C)C=CC(=O)[C@](C)([C@H]4CC[C@]5(C)C(=CC[C@H]5c5ccoc5)[C@@]41C)[C@@H]23	2.7	20.6	5.11
COCO[C@@H]1[C@@H]2OC[C@]3(C)C=CC(=O)[C@](C)([C@H]4CC[C@]5(C)C(=CC[C@H]5c5ccoc5)[C@@]41C)[C@@H]23	2.3	19.7	5.07
CC(=O)O[C@@H]1[C@@H]2OC[C@]3(C)C=CC(=O)[C@](C)([C@H]4CC[C@]5(C)C(=CC[C@H]5c5ccoc5)[C@@]41C)[C@@H]23	3	26.2	5.06
C[C@]12C3=CC[C@@H](c4ccoc4)[C@]3(C)CC[C@@H]1[C@@]1(C)C(=O)C=C[C@@]3(C)CO[C@@H]([C@H]2OC(=O)C(F)(F)F)[C@H]13	1.9	13.7	5.14
C[C@]12C3=CC[C@@H](c4ccoc4)[C@]3(C)CC[C@@H]1[C@@]1(C)C(=O)C=C[C@@]3(C)CO[C@@H]([C@H]2OC(=O)c2ccccc2)[C@H]13	–	> 50	< 4.30
C[C@]12C3=CC[C@@H](c4ccoc4)[C@]3(C)CC[C@@H]1[C@@]1(C)C(=O)C=C[C@@]3(C)CO[C@@H]([C@H]2OC(=O)c2ccncc2)[C@H]13	0.9	17.2	4.73
C[C@]12CCC(=O)[C@]3(C)[C@H]4CC[C@]5(C)C(=CCC5C5CCOC5)[C@]4(C)[C@H](O)[C@H](OC1)[C@@H]23 (stereo partly specified)	–	> 50	< 4.30
C[C@@]12C(=O)C=C[C@@]3(C)COC(=C[C@@]4(C)C5=CC[C@@H](c6ccoc6)[C@]5(C)CC[C@H]14)[C@H]23	>1.7	> 50	4.53
C[C@@]12CCC(O)[C@@]3(C)[C@H]1[C@@H](OC2)[C@@H](O)[C@@]1(C)C2=CC[C@@H](c4ccoc4)[C@]2(C)CC[C@@H]13 (stereo partly specified)	>2.4	> 50	4.68
CC(=O)O[C@H]1[C@@H](O)[C@@]2(C)C3=CC[C@@H](c4ccoc4)[C@]3(C)CC[C@@H]2[C@@]2(C)C(=O)[C@H]3O[C@H]3[C@]3(CO3)[C@H]12 [CERAMICINE E]	1.1	48.4	4.36
C[C@@]1(C=O)C=CC(=O)[C@]2(C)[C@H]3CC[C@]4(C)C(=CC[C@H]4c4ccoc4)[C@]3(C)[C@H](O)[C@H](O)[C@@H]12 [CERAMICINE F]	1.1	25	4.65
COC(=O)[C@]1(C)C=CC(=O)[C@]2(C)[C@H]3CC[C@]4(C)C(=CC[C@H]4c4ccoc4)[C@]3(C)[C@H](O)[C@H](O)[C@H]21 [CERAMICINE G]	1.9	72.9	4.42
C/C=C(\C)C(=O)O[C@H]1C[C@H]2[C@](C)(C3=CC[C@@H](c4ccoc4)[C@@]31C)[C@H](O)[C@@H]1OC[C@]3(C)C=CC(=O)[C@@]2(C)[C@@H]13 [CERAMICINE H]	–	> 50	< 4.30
CC(=O)O[C@H]1C[C@H]2[C@](C)(C3=CC[C@@H](c4ccoc4)[C@@]31C)[C@H](O)[C@@H]1OC[C@]3(C)C=CC(=O)[C@@]2(C)[C@@H]13 [CERAMICINE I]	>1.2	> 50	4.39
C[C@@]12CC[C@@H]3[C@@]4(C)C(=O)C=C[C@@]5(C)CO[C@@H]([C@@H](O)[C@@]3(C)[C@@H]1C(=O)C[C@H]2c1ccoc1)[C@H]45 [CERAMICINE J]	–	> 50	< 4.30
CC(=O)O[C@H]1C=CC(=O)[C@@]2(C)[C@H]1[C@@H](O)[C@@H](O)[C@@]1(C)C3=CC[C@@H](c4ccoc4)[C@]3(C)CC[C@H]21 [CERAMICINE K]	–	> 50	< 4.30
C[C@]12C3=CC[C@@H](c4ccoc4)[C@]3(C)CC[C@@H]1[C@@]1(C)C(=O)C=C[C@@](C)(O)[C@@H]1[C@@H](O)[C@H]2O [CERAMICINE L]	–	> 50	< 4.30
CC(=O)O[C@@H]1[C@H]2[C@@H](O)C=CC(=O)[C@]2(C)[C@H]2CC[C@]3(C)C(=CC[C@H]3c3ccoc3)[C@]2(C)[C@@H]1O [CERAMICINES A]	5	30.7	5.21
C[C@]12C3=CC[C@@H](c4ccoc4)[C@]3(C)CC[C@@H]1[C@@]1(C)C(=O)C=C[C@@]3(C)CO[C@@H]([C@H]2O)[C@H]13 [CERAMICINES B]	8.8	15.9	5.74
C=C(C)C(=O)O[C@H]1C[C@H]2[C@](C)(C3=CC[C@@H](c4ccoc4)[C@@]31C)[C@H](O)[C@@H]1OC[C@]3(C)C=CC(=O)[C@@]2(C)[C@@H]13 [CERAMICINES C]	1.2	21.9	4.72
C[C@]12C3=CC[C@@H](C4=CCOC4=O)[C@]3(C)CC[C@@H]1[C@@]1(C)C(=O)C=C[C@@]3(C)CO[C@@H]([C@H]2O)[C@H]13 [CERAMICINES D]	–	> 50	< 4.30
